Holding throughout (assay): cell-based
The target of assay [1] is hNav1.7 (Homo sapiens, UniProt Q15858). It counts as cell-based.
Assay [2] addresses hNav1.3 (Homo sapiens, UniProt Q9NY46). The settings on record: IonWorks Quattro, read-out: IWQ Use Nav1.3. Background: Patch clamp records ionic current or voltage across a cell membrane.
The target of assay [3] is hNav1.5 (Homo sapiens, UniProt Q14524).
Setting [4] is: IonWorks Quattro, clamped to −110 mV, depolarized to −10 mV, 5 min after compound, n=2, read-out: IWQ Use Nav1.7.
Where [5] appears, read: clamped to −110 mV, depolarized to −10 mV, 5 min after compound, n=2.
Setting [6] is: IonWorks Quattro, clamped to −110 mV, depolarized to −10 mV, 5 min after compound, n=2, read-out: IWQ Use Nav1.5.

Read-outs that look alike come from different tables or passages of the source. Positions of bridges follow the written chain, without caps; N, C: chain ends. Residues, ends and D or L forms follow the SMILES beside them.

hNav1.7, sequence (Q15858 whole entry, looked up): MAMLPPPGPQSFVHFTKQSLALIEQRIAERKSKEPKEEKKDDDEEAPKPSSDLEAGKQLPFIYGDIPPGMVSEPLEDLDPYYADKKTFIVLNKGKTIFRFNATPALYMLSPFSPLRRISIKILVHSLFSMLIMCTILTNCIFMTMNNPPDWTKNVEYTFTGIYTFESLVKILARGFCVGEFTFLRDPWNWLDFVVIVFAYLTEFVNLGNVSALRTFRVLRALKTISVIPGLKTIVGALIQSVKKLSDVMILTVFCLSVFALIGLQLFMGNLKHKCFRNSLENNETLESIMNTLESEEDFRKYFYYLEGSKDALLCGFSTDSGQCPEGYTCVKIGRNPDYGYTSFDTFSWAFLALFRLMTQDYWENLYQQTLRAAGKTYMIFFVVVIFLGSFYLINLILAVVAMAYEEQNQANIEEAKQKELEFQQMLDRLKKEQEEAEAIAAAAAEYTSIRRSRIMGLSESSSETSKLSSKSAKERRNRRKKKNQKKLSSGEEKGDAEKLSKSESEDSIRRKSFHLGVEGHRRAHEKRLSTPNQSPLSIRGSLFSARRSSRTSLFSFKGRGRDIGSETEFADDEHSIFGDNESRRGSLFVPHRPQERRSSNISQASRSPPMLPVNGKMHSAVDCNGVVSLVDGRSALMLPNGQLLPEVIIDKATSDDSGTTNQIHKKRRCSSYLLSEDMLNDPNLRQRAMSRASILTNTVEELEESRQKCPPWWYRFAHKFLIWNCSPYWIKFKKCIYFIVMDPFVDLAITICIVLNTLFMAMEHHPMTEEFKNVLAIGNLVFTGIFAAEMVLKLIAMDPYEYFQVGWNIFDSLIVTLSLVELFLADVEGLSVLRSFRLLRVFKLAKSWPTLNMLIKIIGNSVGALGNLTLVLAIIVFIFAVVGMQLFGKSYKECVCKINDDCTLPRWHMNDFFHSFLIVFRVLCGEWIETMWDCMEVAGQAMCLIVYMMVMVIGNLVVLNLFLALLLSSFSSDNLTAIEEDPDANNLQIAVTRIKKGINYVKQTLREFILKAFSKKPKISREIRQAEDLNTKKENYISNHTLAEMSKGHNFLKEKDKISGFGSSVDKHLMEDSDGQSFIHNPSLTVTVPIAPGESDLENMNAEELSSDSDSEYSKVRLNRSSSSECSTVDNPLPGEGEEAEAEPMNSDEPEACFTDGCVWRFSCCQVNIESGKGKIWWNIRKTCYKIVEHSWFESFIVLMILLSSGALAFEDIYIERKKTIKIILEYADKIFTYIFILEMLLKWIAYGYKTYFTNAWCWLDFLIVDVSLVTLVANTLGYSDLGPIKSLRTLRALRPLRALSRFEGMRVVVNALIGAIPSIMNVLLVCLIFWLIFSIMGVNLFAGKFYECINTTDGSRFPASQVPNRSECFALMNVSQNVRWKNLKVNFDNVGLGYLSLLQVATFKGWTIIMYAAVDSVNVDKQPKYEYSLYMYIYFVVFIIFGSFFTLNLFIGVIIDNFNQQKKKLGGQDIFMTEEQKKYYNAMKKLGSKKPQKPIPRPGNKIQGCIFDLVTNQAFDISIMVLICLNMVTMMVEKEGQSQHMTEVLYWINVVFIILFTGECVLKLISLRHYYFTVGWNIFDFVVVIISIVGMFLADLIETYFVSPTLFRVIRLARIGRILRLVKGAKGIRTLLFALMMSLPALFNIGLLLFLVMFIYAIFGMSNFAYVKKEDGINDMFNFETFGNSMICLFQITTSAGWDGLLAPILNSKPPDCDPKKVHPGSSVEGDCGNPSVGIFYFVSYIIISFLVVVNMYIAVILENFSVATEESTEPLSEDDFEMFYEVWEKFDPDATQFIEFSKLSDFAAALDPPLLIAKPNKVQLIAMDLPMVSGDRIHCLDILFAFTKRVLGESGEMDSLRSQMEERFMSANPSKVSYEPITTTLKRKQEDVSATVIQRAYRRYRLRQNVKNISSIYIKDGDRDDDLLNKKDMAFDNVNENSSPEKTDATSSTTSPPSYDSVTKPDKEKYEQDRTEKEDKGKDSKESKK
hNav1.3, sequence (Q9NY46 whole entry, looked up): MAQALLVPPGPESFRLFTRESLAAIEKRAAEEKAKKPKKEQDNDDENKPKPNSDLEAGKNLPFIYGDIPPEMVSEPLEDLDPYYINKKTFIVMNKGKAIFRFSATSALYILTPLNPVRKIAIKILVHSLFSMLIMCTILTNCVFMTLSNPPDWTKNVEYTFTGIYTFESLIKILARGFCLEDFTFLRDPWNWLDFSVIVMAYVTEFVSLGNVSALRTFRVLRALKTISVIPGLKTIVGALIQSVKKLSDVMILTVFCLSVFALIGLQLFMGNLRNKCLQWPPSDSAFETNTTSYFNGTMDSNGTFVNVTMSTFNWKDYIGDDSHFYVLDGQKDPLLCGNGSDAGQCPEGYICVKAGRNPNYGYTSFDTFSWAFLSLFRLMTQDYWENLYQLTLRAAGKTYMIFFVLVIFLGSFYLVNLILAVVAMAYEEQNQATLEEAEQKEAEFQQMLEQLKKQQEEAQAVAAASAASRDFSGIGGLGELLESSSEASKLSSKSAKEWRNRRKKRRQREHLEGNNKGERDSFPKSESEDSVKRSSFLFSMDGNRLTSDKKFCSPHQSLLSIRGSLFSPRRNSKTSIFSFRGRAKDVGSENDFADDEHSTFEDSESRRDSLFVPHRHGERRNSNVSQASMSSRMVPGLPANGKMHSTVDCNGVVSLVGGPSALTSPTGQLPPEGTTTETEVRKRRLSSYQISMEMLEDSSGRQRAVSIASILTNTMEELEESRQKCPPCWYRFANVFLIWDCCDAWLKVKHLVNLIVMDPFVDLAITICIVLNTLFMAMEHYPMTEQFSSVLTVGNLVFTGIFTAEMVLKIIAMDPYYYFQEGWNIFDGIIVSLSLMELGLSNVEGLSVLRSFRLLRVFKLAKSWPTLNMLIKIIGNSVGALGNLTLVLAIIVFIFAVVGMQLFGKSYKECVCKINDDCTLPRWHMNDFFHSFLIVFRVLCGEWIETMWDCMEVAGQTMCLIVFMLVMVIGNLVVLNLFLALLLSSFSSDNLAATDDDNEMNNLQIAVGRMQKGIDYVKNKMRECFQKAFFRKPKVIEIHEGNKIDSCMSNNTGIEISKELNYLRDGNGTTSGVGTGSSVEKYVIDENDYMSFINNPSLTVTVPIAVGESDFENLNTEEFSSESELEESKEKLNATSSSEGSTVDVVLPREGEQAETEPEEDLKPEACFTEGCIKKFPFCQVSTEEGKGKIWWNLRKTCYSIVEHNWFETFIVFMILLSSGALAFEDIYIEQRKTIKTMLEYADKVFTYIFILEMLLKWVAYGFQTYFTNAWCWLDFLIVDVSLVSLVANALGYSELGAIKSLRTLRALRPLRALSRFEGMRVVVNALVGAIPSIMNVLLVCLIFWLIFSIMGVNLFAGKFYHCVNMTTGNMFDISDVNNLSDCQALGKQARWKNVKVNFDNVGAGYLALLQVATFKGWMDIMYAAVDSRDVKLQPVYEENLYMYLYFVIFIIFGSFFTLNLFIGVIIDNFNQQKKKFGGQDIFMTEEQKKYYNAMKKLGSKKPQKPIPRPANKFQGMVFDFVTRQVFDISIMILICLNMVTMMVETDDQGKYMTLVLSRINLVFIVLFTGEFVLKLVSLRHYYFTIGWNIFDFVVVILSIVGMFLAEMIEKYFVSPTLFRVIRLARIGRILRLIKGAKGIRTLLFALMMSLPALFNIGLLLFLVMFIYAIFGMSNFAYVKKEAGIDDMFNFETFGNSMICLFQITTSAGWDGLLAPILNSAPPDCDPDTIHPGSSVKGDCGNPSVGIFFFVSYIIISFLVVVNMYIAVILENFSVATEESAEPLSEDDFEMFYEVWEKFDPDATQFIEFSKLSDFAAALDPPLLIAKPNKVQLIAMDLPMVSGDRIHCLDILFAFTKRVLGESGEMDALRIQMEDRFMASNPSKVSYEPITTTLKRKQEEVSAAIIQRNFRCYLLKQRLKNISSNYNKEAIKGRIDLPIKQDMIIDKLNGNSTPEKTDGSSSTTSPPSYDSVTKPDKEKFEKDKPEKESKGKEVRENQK

Take `CC[C@H](C)[C@@H]1NC(=O)[C@@H]2CSSC[C@@H]3NC(=O)[C@H](C(C)C)NC(=O)[C@H](CC(C)C)NC(=O)[C@H](CC(N)=O)NC(=O)[C@@H]4CCCN4C(=O)[C@H](CCCNC(=N)N)NC(=O)[C@H](CSSC[C@H](NC(=O)[C@@H](N)Cc4ccc(O)cc4)C(=O)N[C@@H](CC(C)C)C(=O)NCC(=O)N[C@@H](Cc4ccccc4)C(=O)N[C@@H](CCSC)C(=O)N[C@@H](CCCNC(=N)N)C(=O)N[C@@H](CCCCN)C(=O)N2)NC(=O)[C@H](CSSC[C@@H](C(=O)N[C@@H](CCCCN)C(=O)N[C@@H](Cc2ccc(O)cc2)C(=O)N[C@H](C(=O)N[C@@H](Cc2ccccc2)C(N)=O)C(C)C)NC(=O)[C@H](Cc2c[nH]c4ccccc24)NC(=O)[C@H](CCCCN)NC(=O)[C@H](Cc2c[nH]cn2)NC(=O)[C@H]([C@@H](C)O)NC(=O)[C@H](CCCNC(=N)N)NC(=O)[C@H](CO)NC3=O)NC(=O)[C@H](CCCCN)NC(=O)[C@H](CC(=O)O)NC(=O)[C@H](CC(N)=O)NC(=O)[C@H](CC(=O)O)NC(=O)[C@@H]2CCCN2C1=O` [SEQ ID NO: 97] (H-YCLGFMRKCIPDNDKCCRPNLVCSRTHKWCKYVF-NH2; disulfide 2-17, 9-23, 16-30): the IC50 in assay [1] (setting [4]) amounted to 160 nM; in assay [2] (setting [5]), 130 nM; in assay [3] (setting [6]) it was 10600 nM.
On the same counts, the results for `CC[C@H](C)[C@@H]1NC(=O)[C@@H]2CSSC[C@@H]3NC(=O)[C@H](C(C)C)NC(=O)[C@H](CC(C)C)NC(=O)[C@H](CC(N)=O)NC(=O)[C@@H]4CCCN4C(=O)[C@H](CCCNC(=N)N)NC(=O)[C@H](CSSC[C@H](NC(=O)[C@@H](N)CC(=O)O)C(=O)N[C@@H](CCC(N)=O)C(=O)NCC(=O)N[C@@H](Cc4ccccc4)C(=O)N[C@@H](CCSC)C(=O)N[C@@H](CCCNC(=N)N)C(=O)N[C@@H](CCCCN)C(=O)N2)NC(=O)[C@H](CSSC[C@@H](C(=O)N[C@@H](CCCCN)C(=O)N[C@@H](Cc2ccc(O)cc2)C(=O)N[C@H](C(=O)N[C@@H](Cc2ccccc2)C(N)=O)C(C)C)NC(=O)[C@H](Cc2c[nH]c4ccccc24)NC(=O)[C@H](CCCCN)NC(=O)[C@H](Cc2c[nH]cn2)NC(=O)[C@H]([C@@H](C)O)NC(=O)[C@H](CCCNC(=N)N)NC(=O)[C@H](CO)NC3=O)NC(=O)[C@H](CCCCN)NC(=O)[C@H](CC(=O)O)NC(=O)[C@H](CC(N)=O)NC(=O)[C@H](CC(=O)O)NC(=O)[C@@H]2CCCN2C1=O` [SEQ ID NO: 98] (H-DCQGFMRKCIPDNDKCCRPNLVCSRTHKWCKYVF-NH2; disulfide 2-17, 9-23, 16-30) are 250 nM, 240 nM and 16400 nM.
In the case of `CC[C@H](C)[C@@H]1NC(=O)[C@@H]2CSSC[C@@H]3NC(=O)[C@H](C(C)C)NC(=O)[C@H](CC(C)C)NC(=O)[C@H](CC(N)=O)NC(=O)[C@@H]4CCCN4C(=O)[C@H](CCCNC(=N)N)NC(=O)[C@H](CSSC[C@H](NC(=O)[C@@H](N)CC(=O)O)C(=O)N[C@@H](CC(C)C)C(=O)NCC(=O)N[C@@H](Cc4cccc5ccccc45)C(=O)N[C@@H](CCSC)C(=O)N[C@@H](CCCNC(=N)N)C(=O)N[C@@H](CCCCN)C(=O)N2)NC(=O)[C@H](CSSC[C@@H](C(=O)N[C@@H](CCCCN)C(=O)N[C@@H](Cc2ccc(O)cc2)C(=O)N[C@H](C(=O)N[C@@H](Cc2ccccc2)C(N)=O)C(C)C)NC(=O)[C@H](Cc2c[nH]c4ccccc24)NC(=O)[C@H](CCCCN)NC(=O)[C@H](Cc2c[nH]cn2)NC(=O)[C@H]([C@@H](C)O)NC(=O)[C@H](CCCNC(=N)N)NC(=O)[C@H](CO)NC3=O)NC(=O)[C@H](CCCCN)NC(=O)[C@H](CC(=O)O)NC(=O)[C@H](CC(N)=O)NC(=O)[C@H](CC(=O)O)NC(=O)[C@@H]2CCCN2C1=O` [SEQ ID NO: 105], the IC50 in assay [1] (setting [4]) was found to be 80 nM; in assay [2] (setting [5]), 100 nM; in assay [3] (IWQ Use Nav1.5), 13400 nM.
As to `CC[C@H](C)[C@@H]1NC(=O)[C@@H]2CSSC[C@@H]3NC(=O)[C@H](C(C)C)NC(=O)[C@H](CC(C)C)NC(=O)[C@H](CC(N)=O)NC(=O)[C@@H]4CCCN4C(=O)[C@H](CCCNC(=N)N)NC(=O)[C@H](CSSC[C@H](NC(=O)[C@H](CC(=O)O)NC(=O)[C@@H](N)Cc4c[nH]c5ccccc45)C(=O)N[C@@H](CC(C)C)C(=O)NCC(=O)N[C@@H](Cc4ccccc4)C(=O)N[C@@H](CCSC)C(=O)N[C@@H](CCCNC(=N)N)C(=O)N[C@@H](CCCCN)C(=O)N2)NC(=O)[C@H](CSSC[C@@H](C(=O)N[C@@H](CCCCN)C(=O)N[C@@H](Cc2ccc(O)cc2)C(=O)N[C@H](C(=O)N[C@@H](Cc2ccccc2)C(N)=O)C(C)C)NC(=O)[C@H](Cc2c[nH]c4ccccc24)NC(=O)[C@H](CCCCN)NC(=O)[C@H](Cc2cnc[nH]2)NC(=O)[C@H]([C@@H](C)O)NC(=O)[C@H](CCCNC(=N)N)NC(=O)[C@H](CO)NC3=O)NC(=O)[C@H](CCCCN)NC(=O)[C@H](CC(=O)O)NC(=O)[C@H](CC(N)=O)NC(=O)[C@H](CC(=O)O)NC(=O)[C@@H]2CCCN2C1=O` [SEQ ID NO: 106], the values for the IC50 in assay [1] (setting [4]), in assay [2] (setting [5]) and in assay [3] (setting [6]) were 220 nM, 250 nM and 22000 nM, respectively.
Take `CC[C@H](C)[C@@H]1NC(=O)[C@@H]2CSSC[C@@H]3NC(=O)[C@H](C(C)C)NC(=O)[C@H](CC(C)C)NC(=O)[C@H](CC(N)=O)NC(=O)[C@@H]4CCCN4C(=O)[C@H](CCCNC(=N)N)NC(=O)[C@H](CSSC[C@H](NC(=O)[C@@H](N)CC(=O)O)C(=O)N[C@@H](CC(C)C)C(=O)NCC(=O)N[C@@H](Cc4ccccc4)C(=O)N[C@@H](CCSC)C(=O)N[C@@H](CCCNC(=N)N)C(=O)N[C@@H](CCCCN)C(=O)N2)NC(=O)[C@H](CSSC[C@@H](C(=O)N[C@@H](CCCCN)C(=O)N[C@@H](Cc2ccc(O)cc2)C(=O)N[C@H](C(=O)N[C@@H](Cc2ccccc2)C(N)=O)C(C)C)NC(=O)[C@H](Cc2c[nH]c4ccccc24)NC(=O)[C@H](CCCCN)NC(=O)[C@H](Cc2cnc[nH]2)NC(=O)[C@H](CC(C)C)NC(=O)[C@H](CCCNC(=N)N)NC(=O)[C@H](CO)NC3=O)NC(=O)[C@H](CCCCN)NC(=O)[C@H](CC(=O)O)NC(=O)[C@H](CC(N)=O)NC(=O)[C@H](CC(=O)O)NC(=O)[C@@H]2CCCN2C1=O` [SEQ ID NO: 121, [Leu26]GpTx-1] (H-DCLGFMRKCIPDNDKCCRPNLVCSRLHKWCKYVF-NH2; disulfide 2-17, 9-23, 16-30): the IC50 came out at 70 nM in assay [1]; 70 nM in assay [2] (Table 22, use, […]); 10200 nM in assay [3] (Table 22, IonWorks Quattro, use, […], read-out: IWQ Use Nav1.5).
On to `CC[C@@H]1NC(=O)[C@H](Cc2ccccc2)NC(=O)CNC(=O)[C@H](CC(C)C)NC(=O)[C@@H](NC(=O)[C@@H](N)CC(=O)O)CSSC[C@@H]2NC(=O)[C@@H]3CSSC[C@@H](C(=O)N[C@@H](CCCCN)C(=O)N[C@@H](Cc4ccc(O)cc4)C(=O)N[C@H](C(=O)N[C@@H](Cc4ccccc4)C(N)=O)C(C)C)NC(=O)[C@H](Cc4c[nH]c5ccccc45)NC(=O)[C@H](CCCCN)NC(=O)[C@H](Cc4c[nH]cn4)NC(=O)[C@H]([C@@H](C)O)NC(=O)[C@H](CCCNC(=N)N)NC(=O)[C@H](CO)NC(=O)[C@H](CSSC[C@H](NC(=O)[C@H](CCCCN)NC(=O)[C@H](CCCNC(=N)N)NC1=O)C(=O)N[C@@H]([C@@H](C)CC)C(=O)N1CCC[C@H]1C(=O)N[C@@H](CC(=O)O)C(=O)N[C@@H](CC(N)=O)C(=O)N[C@@H](CC(=O)O)C(=O)N[C@@H](CCCCN)C(=O)N3)NC(=O)[C@H](C(C)C)NC(=O)[C@H](CC(C)C)NC(=O)[C@H](CC(N)=O)NC(=O)[C@@H]1CCCN1C(=O)[C@H](CCCNC(=N)N)NC2=O` [SEQ ID NO: 124], for which the IC50 in assay [1] (setting [4]) worked out at 110 nM; in assay [2] (setting [5]), 100 nM; in assay [3] (setting [6]), 10600 nM.
